Laboratory results: US8575107B2, “Clusterin derived peptide” (Compugen Ltd., priority 2008, dated 2013)
Where a SMILES comes first, the peptide text is derived from it.

Columns and labels:
[1] = system: A549 human non-small cell lung cancer cells; assay: In vivo A549 mouse xenograft model, CGEN-CL1 with paclitaxel; design: species or system Balb/c Nu/Nu female mice; conditions: A549 tumor bearing BALB/c nu/nu mice; CGEN-CL1 sc daily around tumor + paclitaxel 15 mg/kg IP; vs paclitaxel and vehicle
Method: In order to test the in-vivo activity of CGEN-CL1, Balb/c Nu/Nu female mice (10 in each group) were inoculated with 5×10^6 A549 human non-small cell lung cancer cells. Treatment was initiated when tumors reached 400-500 mm^3. One group received 15 mg/kg of paclitaxell (IP once every three days) and CGEN-CL1 [SEQ ID NO:1] (daily injected sub-cutaneously (sc) at the surrounding of the tumor) whereas the second group received paclitaxel and saline (at the same dose and route of administration). Tumor volume was measured every three days.

[2] = system: cleaved PARP in PC3 cells; assay: Detection of cleaved PARP by Western blot in PC3 cells; type: cell-based
Method: Apoptosis was analyzed either by cell cycle analysis or by PARP cleavage estimation. The amount of cleaved PARP is proportional to the amount of cells undergoing apoptosis (see for example Boulares A. H., et al., 1999, JBC 274:22932-22940).
FIG. 3 presents results of detection of cleaved PARP in PC3 cells treated with CGEN-CL1 combined with or without Paclitaxel. PC3 cells were treated with CGEN-CL1 (SEQ ID NO:1), alone or in combination with Paclitaxel, for 48, 72 and 96 hours. Cleaved PARP was detected in cell lysates by Western blot analysis. […] Elevation of the amount of cleaved PARP indicates an increase in apoptotic cells.

[3] = system: breast cancer cell line MCF-7
Method: MCF7 cells were seeded at 10,000 cells per well in 150 μl of media (DMEM medium+5% FBS) in a 96 well plate.

SK-MEL melanoma cells = assay: MTT assay, growth of SK-MEL cells treated with CGEN-CL1; type: cell-based
Method: CGEN-CL1 as synthesized in Example 1 was analyzed for its ability to induce growth arrest in various cancer cell lines, such as: breast cancer cell line MCF-7 (Adenocarcinoma, Breast, HTB-22, ATCC), PC3 (Adenocarcinoma, Prostate, CRL-1435, ATCC), A549 (carcinoma, Lung, CCL-185, ATCC), HT-29 (Colorectal Adenocarcinoma, Colon, HTB-38, ATCC) and SK-mel 5 (Melanoma, Skin, HTB70, ATCC).
SK-MEL 5 cells were seeded at 10,000 cells per well in 150 μl of media (DMEM medium+5% FBS) in a 96 well plate.
CGEN-CL1 (1 mg dissolved in 2500 of Sodium bi-carbonate to a stock concentration of 4 mg/ml) was added to the wells in 500 of medium (final volume of 2000) as detailed in Table 2. The relative growth was normalized to controls where CGEN-CL1 was not added to wells.
(§1) 20 μl of MTT (3-(4,5-Dimethyl-2-thiazolyl)-2,5-diphenyl-2H-tetrazolium bromide) solution (Sigma Cat#M5655, lot#085k5322, 1 gr was dissolved in 200 ml H2O and filtered, giving a final concentration of 5 mg/ml) was added to each well and incubated for 4 hours at 37° C. after which the medium was vacuumed and 100 μl of DMSO was added to each well. Absorbance was measured in an ELISA reader at 492 nm.

[4] = system: A549 human non-small cell lung cancer cells
Method: A549 cells were seeded at 6000 cells per well in 150 μl of media (DMEM medium+5% FBS) in a 96 well plate.

[5] = system: prostate adenocarcinoma cell line PC3; assay: MTT assay, CGEN-CL1 and/or paclitaxel on PC3 cells; type: cell-based
Method: as §1
(§2) A549, PC3 and MCF7 cells were seeded at 6000, 8000 and 10,000 cells per well respectively in 150 μl of media (DMEM medium+5% FBS) in 96 well plates.
(§3) Paclitaxel (Sigma T7402, Lot. 036k1217, Mw 853.9, 5 mg dissolved in 585 μl DMSO to a stock concentration of 10 mM, stored at −20° C.) and/or CGEN-CL1 (1 mg dissolved in 250 μl of sodium bi-carbonate to a stock concentration of 4 mg/ml) were added to the wells in 25 μl of medium (final volume of 200 μl) as detailed in Table 3. The relative growth was normalized to controls where neither paclitaxel nor CGEN-CL1 was added to wells.
(§4) An MTT assay was performed as described above in Example 2.

[6] = system: MCF-7 breast cancer cell lines; assay: MTT assay, CGEN-CL1 and/or paclitaxel on MCF-7 cells; type: cell-based
Method: as §1, §2, §3, §4

PC3 cells = conditions: MTT
Method: PC3 cells were seeded at 8000 cells per well in 150 μl of media (DMEM medium+5% FBS) in a 96 well plate.

[7] = system: lung carcinoma cell line A549; assay: MTT assay, CGEN-CL1 and/or paclitaxel on A549 cells; type: cell-based, human
Method: as §1, §2, §3, §4

[8] = molecular target: T1, recombinant human clusterin (Homo sapiens, UniProt P10909); assay: BIAcore surface plasmon resonance binding of CGEN-CL1 to clusterin; conditions: SPR, 312-5000 nM CGEN-CL1, immobilized clusterin
T1 construct: purchased Biovendor RD172034100
Text: The capability of CGEN-CL1 to specifically bind to recombinant Clusterin protein was investigated using the BIACORE technology, measuring protein-protein interaction and binding affinity. The technology is based on surface plasmon resonance (SPR), an optical phenomenon that enables detection of unlabeled interactants in real time. The SPR-based biosensors can be used in determination of active concentration, screening and characterization in terms of both affinity and kinetics.
Peptide-protein interaction was analyzed using surface plasmon resonance. Analysis of the interaction between CGEN-CL1 [SEQ ID NO:1] and recombinant human clusterin (Biovendor, Modrice, Czech republic cat no: RD172034100) was conducted using the BIAcore biosensor (Pharmacia Biosensor, Uppsala, Sweden). Clusterin was immobilized directly to a CM5 sensor chip (2000 resonance units (RU)). Solution containing five different concentrations of CGEN-CL1 [SEQ ID NO:1] (312, 625, 1250, 2500 and 5000 nM) was injected into the sample chamber of the BIACORE device and the interaction was monitored for 5 minutes using surface plasmon resonance.
As a background, the solutions were also injected onto an empty flow cell with no immobilized ligand and the binding levels achieved were subtracted. Data were analyzed using BIAevaluation software.

T1 sequence (P10909 23-449): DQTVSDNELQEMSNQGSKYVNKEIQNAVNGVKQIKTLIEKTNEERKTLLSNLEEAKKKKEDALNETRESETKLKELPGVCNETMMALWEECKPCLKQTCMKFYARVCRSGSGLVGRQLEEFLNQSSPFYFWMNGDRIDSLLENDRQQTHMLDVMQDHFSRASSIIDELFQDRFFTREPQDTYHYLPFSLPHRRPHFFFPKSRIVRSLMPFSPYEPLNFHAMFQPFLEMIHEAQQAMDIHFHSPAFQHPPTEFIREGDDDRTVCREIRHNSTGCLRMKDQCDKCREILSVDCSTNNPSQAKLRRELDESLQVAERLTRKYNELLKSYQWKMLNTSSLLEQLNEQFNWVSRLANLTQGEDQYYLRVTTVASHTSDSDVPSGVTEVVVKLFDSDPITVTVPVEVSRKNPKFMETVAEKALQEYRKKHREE

Q: For CC[C@H](C)[C@H](NC(=O)[C@H](CCCNC(=N)N)NC(=O)[C@H](CC(=O)O)NC(=O)CNC(=O)[C@H](CC(N)=O)NC(=O)[C@H](CCSC)NC(=O)[C@H](Cc1c[nH]c2ccccc12)NC(=O)[C@H](Cc1ccccc1)NC(=O)[C@H](Cc1ccc(O)cc1)NC(=O)[C@H](Cc1ccccc1)NC(C)=O)C(=O)N[C@@H](CC(=O)O)C(=O)N[C@@H](CO)C(=O)N[C@@H](CC(C)C)C(=O)N[C@@H](CC(C)C)C(=O)N[C@@H](CCC(=O)O)C(=O)N[C@@H](CC(N)=O)C(=O)N[C@@H](CC(=O)O)C(=O)N[C@@H](CCCNC(=N)N)C(=O)N[C@@H](CCC(N)=O)C(=O)N[C@@H](CCC(N)=O)C(=O)N[C@H](C(N)=O)[C@@H](C)O [CGEN-CL1] (Ac-FYFWMNGDRIDSLLENDRQQT-NH2), which “reduction in tumor volume” value [1] is on record?
A: The value was 25-30%.

Q: What about the “amount of cleaved PARP” value ([2]; PC3 cells treated with Paclitaxel plus CGEN-CL1, 48 hours) of the same molecule?
A: Its value is “dramatically enhanced the amount of cleaved PARP”.

Q: And the “amount of cleaved PARP” value ([2]; PC3 cells, CGEN-CL1 alone, 48 hours)?
A: The value was “caused an enhancement in the amount of cleaved PARP”.

Q: And the “amount of cleaved PARP” value ([2]; PC3 cells, CGEN-CL1 alone, 72 hours, administration at time zero and after 48 hours)?
A: The value was “significant increase in cleaved PARP”.

Q: And the EC50 [3]?
A: The EC50 was 56 nM.

Q: What about the “concentration achieving maximal growth inhibition” value ([3]; MCF-7 breast cancer cells, MTT) of the same molecule?
A: The value was “approximately 900 nM”.

Q: What about the “concentration with a growth inhibiting effect (as little as)” value ([3]; MCF-7 breast cancer cells, MTT) of the same molecule?
A: Its value is 50 nM.

Q: What about the “growth inhibition as revealed by cellular viability” value (SK-MEL melanoma cells) of the same molecule?
A: The value was “evoked growth inhibition”.

Q: And the EC50 [4]?
A: Its EC50 is 0.95 nM.

Q: And the “CGEN-CL1 concentration that sensitized cells to paclitaxel at sub-minimal doses (as little as)” value [5]?
A: The value was 7 nM.

Q: And the growth inhibition ([5]; 60 nM CGEN-CL1 combined with 5 nM paclitaxel)?
A: Its growth inhibition is “same growth inhibition rates as the growth inhibition achieved by 45 nM of paclitaxel alone”.

Q: What about the “growth inhibition relative to 45 nM of paclitaxel alone” value ([5]; 60 nM CGEN-CL1 combined with 45 nM paclitaxel) of the same molecule?
A: Its value is 1.5 fold.

Q: And the “effect between CGEN-CL1 and paclitaxel” value ([5]; CGEN-CL1 at different concentrations with different doses of paclitaxel)?
A: Its value is “synergistic effect”.

Q: And the “Relative Growth” value ([6]; CGEN-CL1 7.1 nM + Paclitaxel 2.25 nM)?
A: The value was 0.62.

Q: And the “Relative Growth” value ([6]; CGEN-CL1 7.1 nM + Paclitaxel 30.00 nM)?
A: The value was 0.31.

Q: And the “Relative Growth” value ([6]; CGEN-CL1 7.1 nM alone)?
A: The value was 0.68.

Q: And the “Relative Growth” value ([6]; CGEN-CL1 22.3 nM + Paclitaxel 2.25 nM)?
A: Its value is 0.53.

Q: And the “Relative Growth” value ([6]; CGEN-CL1 22.3 nM + Paclitaxel 30.00 nM)?
A: The value was 0.28.

Q: And the “Relative Growth” value ([6]; CGEN-CL1 22.3 nM alone)?
A: Its value is 0.61.

Q: What about the “Relative Growth” value ([6]; CGEN-CL1 63.2 nM + Paclitaxel 2.25 nM) of the same molecule?
A: The value was 0.46.

Q: What about the “Relative Growth” value ([6]; CGEN-CL1 63.2 nM + Paclitaxel 30.00 nM) of the same molecule?
A: Its value is 0.24.

Q: And the “Relative Growth” value ([6]; CGEN-CL1 63.2 nM alone)?
A: The value was 0.48.

Q: What about the “Relative Growth” value ([6]; CGEN-CL1 185.9 nM + Paclitaxel 2.25 nM) of the same molecule?
A: Its value is 0.45.

Q: And the “Relative Growth” value ([6]; CGEN-CL1 185.9 nM + Paclitaxel 30.00 nM)?
A: Its value is 0.25.

Q: What about the “Relative Growth” value ([6]; CGEN-CL1 185.9 nM alone) of the same molecule?
A: Its value is 0.49.

Q: What about the “Relative Growth” value ([6]; CGEN-CL1 557.6 nM + Paclitaxel 2.25 nM) of the same molecule?
A: Its value is 0.42.

Q: What about the “Relative Growth” value ([6]; CGEN-CL1 557.6 nM + Paclitaxel 30.00 nM) of the same molecule?
A: The value was 0.23.

Q: And the “Relative Growth” value ([6]; CGEN-CL1 557.6 nM alone)?
A: The value was 0.46.

Q: What about the “effect of timing on cell growth” value ([6]; CGEN-CL1 added 24 hours after 30 nM paclitaxel vs concomitantly) of the same molecule?
A: The value was “need for lower concentrations of CGEN-CL1 to achieve the same effect”.

Q: And the “effect on growth inhibition when given in combination” value ([6]; CGEN-CL1 and paclitaxel in combination)?
A: Its value is “synergistic effect”.

Q: And the “CGEN-CL1 concentration giving further inhibition of cell proliferation (as little as)” value ([6]; at 30 nM Paclitaxel)?
A: The value was 7.1 nM.

Q: And the “concentration evoking the maximal effect (as little as)” value (PC3 cells)?
A: The value was 15 nM.

Q: And the “CGEN-CL1 concentration that sensitizes cells to sub-minimal concentrations of paclitaxel (as little as)” value [7]?
A: The value was 1 nM.

Q: And the “maximal effect (inhibition) in combination with paclitaxel” value ([7]; CGEN-CL1 + paclitaxel)?
A: Its value is 73%.

Q: And the “maximal effect (inhibition) alone” value ([7]; single agent)?
A: Its value is 48%.

Q: What about the “binding to parent protein clusterin” value [8] of the same molecule?
A: The value was “binds to its parent protein clusterin in a dose dependent manner”.
